Measured values taken from PubChem BioAssay AID248 (DTP/NCI, 2004).
“And” between values parts separate entries of the source, which are not always exact repeats. Identical values can stand only once. Toxic doses and inconclusive results are not listed. Cut-off read from the data, not from the text of the source: active = T/C of 150% or more; inactive = T/C below 125%.

Tested on: L1210 leukemia ip in BDF1 mice, survival T/C
Test: NCI In Vivo Anticancer Drug Screen. Data for tumor model L1210 Leukemia (intraperitoneal) in B6D2F1 (BDF1) mice
Conditions: endpoint: mean survival time, higher = longer survival
Procedure, shortened: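 Antitumor effect is assessed in tumor-bearing animals. Survival in the compound arm is compared with a vehicle-dosed control arm and expressed as their quotient.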

[1] = dose: 100.0 mg/kg/injection, schedule: Q01DX009 (ip), vehicle: Klucel (hydroxypropylcellulose) (HPC)
[2] = dose: 200.0 mg/kg/injection, schedule: Q01DX009 (ip), vehicle: Klucel (hydroxypropylcellulose) (HPC)
[3] = dose: 100.0 mg/kg/injection, schedule: Q04DX003 (ip), vehicle: Klucel (hydroxypropylcellulose) (HPC)
[4] = dose: 200.0 mg/kg/injection, schedule: Q04DX003 (ip), vehicle: Klucel (hydroxypropylcellulose) (HPC)
[5] = dose: 400.0 mg/kg/injection, schedule: Q01DX009 (ip), vehicle: Klucel (hydroxypropylcellulose) (HPC)
[6] = dose: 400.0 mg/kg/injection, schedule: Q04DX003 (ip), vehicle: Klucel (hydroxypropylcellulose) (HPC)
[7] = dose: 50.0 mg/kg/injection, schedule: Q01DX009 (ip), vehicle: saline with Tween-80
[8] = dose: 100.0 mg/kg/injection, schedule: Q01DX009 (ip), vehicle: saline with Tween-80
[9] = dose: 200.0 mg/kg/injection, schedule: Q01DX009 (ip), vehicle: saline with Tween-80

Measured: T/C

CC(=O)c1ccc(Cl)c([N+](=O)[O-])c1
inactive: dose: 100.0 mg/kg/injection, schedule: Q01DX001 (ip), vehicle: Klucel (hydroxypropylcellulose) (HPC) 91 % of control | [1] 105 % of control | dose: 200.0 mg/kg/injection, schedule: Q01DX001 (ip), vehicle: Klucel (hydroxypropylcellulose) (HPC) 97 % of control | [2] 100 % of control | dose: 400.0 mg/kg/injection, schedule: Q01DX001 (ip), vehicle: Klucel (hydroxypropylcellulose) (HPC) 96 % of control

CCC[CH2][Sn]1([CH2]CCC)[O]C(=O)C[S]1
inactive: dose: 0.78 mg/kg/injection, schedule: Q04DX003 (ip), vehicle: saline 105 % of control | dose: 1.5 mg/kg/injection, schedule: Q01DX Z (ip), vehicle: saline 97 % of control | dose: 1.56 mg/kg/injection, schedule: Q01DX001 (ip), vehicle: acetone 96 % of control | dose: 1.56 mg/kg/injection, schedule: Q04DX003 (ip), vehicle: saline 109 % of control | dose: 2.5 mg/kg/injection, schedule: Q01DX009 (ip), vehicle: acetone 105 % of control | dose: 3.0 mg/kg/injection, schedule: Q01DX Z (ip), vehicle: saline 106 % of control | dose: 3.12 mg/kg/injection, schedule: Q01DX001 (ip), vehicle: acetone 104 % of control | dose: 3.12 mg/kg/injection, schedule: Q04DX003 (ip), vehicle: saline 109 % of control | dose: 4.6 mg/kg/injection, schedule: Q04DX003 (ip), vehicle: saline 107 % of control | dose: 6.0 mg/kg/injection, schedule: Q01DX Z (ip), vehicle: saline 90 % of control | dose: 6.25 mg/kg/injection, schedule: Q01DX001 (ip), vehicle: acetone 105 % of control | dose: 6.25 mg/kg/injection, schedule: Q04DX002 (ip), vehicle: saline with Tween-80 101 % of control | dose: 7.0 mg/kg/injection, schedule: Q04DX003 (ip), vehicle: saline 97 % of control | dose: 10.0 mg/kg/injection, schedule: Q04DX003 (ip), vehicle: saline 108 % of control | dose: 12.5 mg/kg/injection, schedule: Q04DX002 (ip), vehicle: saline with Tween-80 96 % of control | dose: 100.0 mg/kg/injection, schedule: Q04DX002 (ip), vehicle: saline with Tween-80 106 % of control

Cc1ccc([N+](=O)[O-])c(C)c1
inactive: [1] 92 % of control | [3] 105 % of control | [2] 96 % of control | [4] 104 % of control | [5] 102 % of control | [6] 102 % of control

CCCCCC(C)NCCOC(=O)c1ccc(N)cc1 (stereo not drawn)
inactive: dose: 75.0 mg/kg/injection, schedule: Q01DX001 (ip), vehicle: other 98 % of control

COc1ccccc1CCCO
inactive: dose: 50.0 mg/kg/injection, schedule: Q01DX001 (ip), vehicle: saline 97 % of control | dose: 100.0 mg/kg/injection, schedule: Q01DX001 (ip), vehicle: saline 105 % of control | dose: 200.0 mg/kg/injection, schedule: Q01DX001 (ip), vehicle: saline 100 % of control | dose: 400.0 mg/kg/injection, schedule: Q01DX001 (ip), vehicle: saline 105 % of control

C[Si](C)(C)N1N=NC2C(=O)N(c3ccccc3)C(=O)C21 (stereo not drawn)
inactive: [1] 105 % of control | [3] 92 % of control | [2] 110 % of control | [4] 102 % of control | [5] 112 % of control | [6] 103 % of control

Cc1nc(C)c(-c2ccc([N+](=O)[O-])cc2)o1
inactive: dose: 100.0 mg/kg/injection, schedule: Q01DX001 (ip), vehicle: saline with Tween-80 105 % of control | dose: 200.0 mg/kg/injection, schedule: Q01DX001 (ip), vehicle: saline with Tween-80 105 % of control | dose: 400.0 mg/kg/injection, schedule: Q01DX001 (ip), vehicle: saline with Tween-80 102 % of control

N#CCCN(C(=O)Nc1cccc(Cl)c1)C1CCCCC1
inactive: [1] 103 % of control | [2] 90 % of control | [5] 97 % of control

O=S(NOCc1ccccc1)c1ccc(Cl)cc1 (stereo not drawn)
inactive: [1] 93 % of control | [2] 102 % of control | [5] 93 % of control

O=C1C(=O)c2ccccc2C=C1Br
inactive: [3] 94 % of control | [4] 95 % of control

O=C(Nc1cccc(F)c1)Oc1ccc(OCc2ccccc2)cc1
inactive: dose: 100.0 mg/kg/injection, schedule: Q04DX002 (ip), vehicle: saline 101 % of control | dose: 200.0 mg/kg/injection, schedule: Q04DX002 (ip), vehicle: saline 90 % of control | dose: 400.0 mg/kg/injection, schedule: Q04DX002 (ip), vehicle: saline 90 % of control

CC(=O)OC1CCCC(OCC(C)C)O1 (stereo not drawn)
inactive: dose: 40.0 mg/kg/injection, schedule: Q01DX Z (ip), vehicle: saline 94 % of control | dose: 60.0 mg/kg/injection, schedule: Q01DX Z (ip), vehicle: saline 92 % of control

O=C(Nc1ccc(C2=NCCN2)cc1)c1cccc(NC(=S)Nc2ccc(C3=NCCN3)cc2)c1
inactive: dose: 5.0 mg/kg/injection, schedule: Q01DX Z (ip), vehicle: saline 107 % of control and 122 % of control | dose: 20.0 mg/kg/injection, schedule: Q01DX Z (ip), vehicle: saline 102 % of control and 113 % of control | dose: 60.0 mg/kg/injection, schedule: Q01DX Z (oral), vehicle: saline 103 % of control | dose: 120.0 mg/kg/injection, schedule: Q01DX Z (oral), vehicle: saline 111 % of control

Cc1cc2ccccn2c1C(=O)c1ccccc1
inactive: dose: 100.0 mg/kg/injection, schedule: Q01DX001 (ip), vehicle: carboxymethylcellulose (CMC) 107 % of control | dose: 100.0 mg/kg/injection, schedule: Q01DX009 (ip), vehicle: carboxymethylcellulose (CMC) 106 % of control | dose: 100.0 mg/kg/injection, schedule: Q04DX002 (ip), vehicle: carboxymethylcellulose (CMC) 98 % of control and 102 % of control | dose: 100.0 mg/kg/injection, schedule: Q04DX003 (ip), vehicle: carboxymethylcellulose (CMC) 102 % of control | dose: 200.0 mg/kg/injection, schedule: Q01DX001 (ip), vehicle: carboxymethylcellulose (CMC) 98 % of control | dose: 200.0 mg/kg/injection, schedule: Q01DX009 (ip), vehicle: carboxymethylcellulose (CMC) 96 % of control and 106 % of control | dose: 200.0 mg/kg/injection, schedule: Q04DX002 (ip), vehicle: carboxymethylcellulose (CMC) 94 % of control and 107 % of control | dose: 200.0 mg/kg/injection, schedule: Q04DX003 (ip), vehicle: carboxymethylcellulose (CMC) 102 % of control | dose: 400.0 mg/kg/injection, schedule: Q01DX001 (ip), vehicle: carboxymethylcellulose (CMC) 98 % of control | dose: 400.0 mg/kg/injection, schedule: Q01DX009 (ip), vehicle: carboxymethylcellulose (CMC) 95 % of control and 102 % of control | dose: 400.0 mg/kg/injection, schedule: Q04DX002 (ip), vehicle: carboxymethylcellulose (CMC) 93 % of control and 102 % of control | dose: 400.0 mg/kg/injection, schedule: Q04DX003 (ip), vehicle: carboxymethylcellulose (CMC) 102 % of control

COc1cc(Cl)ccc1NC(=O)Oc1ccc(F)cc1Cl
inactive: [1] 104 % of control | [2] 108 % of control | [5] 106 % of control

COc1ccc(NC(=O)C2C3C=CC(C3)C2C(=O)O)cc1 (stereo not drawn)
inactive: [7] 98 % of control | [8] 100 % of control | [9] 100 % of control

CSC(=N)c1cccc(OCCCc2ccccc2)c1
inactive: dose: 25.0 mg/kg/injection, schedule: Q01DX009 (ip), vehicle: saline with Tween-80 92 % of control | [7] 92 % of control | [8] 101 % of control | [9] 93 % of control

Nc1ccc2c(c1)oc1ccccc12
inactive: dose: 100.0 mg/kg/injection, schedule: Q04DX002 (ip), vehicle: Klucel (hydroxypropylcellulose) (HPC) 107 % of control | dose: 200.0 mg/kg/injection, schedule: Q04DX002 (ip), vehicle: Klucel (hydroxypropylcellulose) (HPC) 103 % of control | dose: 400.0 mg/kg/injection, schedule: Q04DX002 (ip), vehicle: Klucel (hydroxypropylcellulose) (HPC) 110 % of control
